Assay results from US20250066386A1, “INHIBITORS OF KRAS” (BIOMEA FUSION, INC., priority 2022, published 2025).
Where two headings read alike, the source gives them in different places.

System: human KRAS G12C mutated cell line MIA PaCa-2
Experiment: KRas G12C in vitro inhibitory activity: cell proliferation, CellTiter-Glo
Format: cell-based
Conditions: Homo sapiens
Source text: The present example evaluates the ability of compounds provided herein to inhibit proliferation of KRAS mutant cells.
The inhibitory effect on cell proliferation was investigated in the human KRAS G12C mutated cell line MIA PaCa-2 (Yunis et al., 1977, Int. J. Cancer 19(1):128-135; ATCC catalog no. CRL-1420). Cells were maintained in RPMI-1640 medium (ThermoFisher catalog no. 61870036) supplemented with 10% of Heat Inactivated FBS (ThermoFisher catalog no. A31605) and 1% Pen-Strep (ThermoFisher catalog no. 10378016) and cultured at 37° C. in a humidified incubator with 5% CO2. Cells were grown by adhering to culture flasks, and maintained at 70%-80% confluency.
ATP is present in all metabolically active cells and is considered as a marker for viable cells. The number of metabolically active live cells in culture was determined using the CellTiter-Glo kit (Promega catalog no. G7572), an ATP monitoring system based on the production of luminescence by the reaction of ATP with added UltraGlo® recombinant luciferase (Kawano et al., 2016, PLOS One, 8; 11(7):e0158888), according to the supplier's experimental recommendations. The cell proliferation assay was based on a 96 well plate format.
Test compounds were dissolved at 10 mM in DMSO (Sigma catalog no. D8418; purity >99.9%) and stored at −20° C. Eight concentrations of test compound were assessed in duplicate in an individual test occasion in parallel in the selected cell lines. MRTX-849 and AMG-510 were used as reference compounds and tested in duplicate at eight concentrations. 100% of proliferation is represented by the untreated cells (0.2% DMSO).
On the day of the experiment (TO), cells were detached with TrypLE (ThermoFisher catalog no. 12604054), quantified using the cell viability analyser NucleoCounter (Chemometec NC-200) and resuspended in fresh medium at a cell density of about 5000 cells per 200 μL medium. 200 μL of cell suspension were added to each well of a 96 well plate.
Two hours after seeding cells, compounds were added at desired concentrations using a D300e compound dispenser (Life Sciences Tecan D300) with shaking after each compound addition. Assay plates were incubated at 37° C. in a humidified incubator with 5% CO2.
(§1) To measure 3 day inhibition of cell proliferation on day 3 (T3), assay plates were equilibrated to room temperature for approximately 15 min, and the Promega CellTiterGlo® reagent was added at 40 μL/well. Contents were mixed for 5 min on an orbital shaker to induce cell lysis, and then incubated at room temperature for an additional 10 min in the dark to stabilize the luminescent signal. Luminescence was read using a GloMax GM300 plate reader (Promega) using the luminescence for 96 well plate standard protocol.
as §1, with “measure 7” for “measure 3”, “(T3), 150 μL of growth media was removed from each well of the assay plates and replaced with 150 uL fresh growth media, and fresh compounds added using a D300e compound dispenser (Life Sciences Tecan D300) at desired concentrations with shaking between each compound addition. Assay plates were incubated at 37° C. in a humidified incubator with 5% CO2. On day 7 (T7)” for “(T3),”
Data was expressed as % of inhibition compared to the 0.2% DMSO negative no drug control, and is calculated as follows: % inhibition=100−[(RLU sample)×100/(RLU average controls*)], where * indicates the average for 0.2% DMSO.
Results were analyzed by GraphPad (Prism) and IC50 values were calculated by non-linear regression using four parameter-logistic equation. […]

[1] = MIA PaCa-2, 72 h, 3 day inhibition of cell proliferation, CellTiter-Glo luminescence, read-out: MIA PaCa-2 Day 3 IC50
[2] = MIA PaCa-2, 7 day inhibition of cell proliferation, medium and compound renewed on day 3, CellTiter-Glo luminescence, read-out: MIA PaCa-2 Day 7 IC50

IC50 [1] | IC50 [2] | SMILES
< 1 nM | – | CCn1c(-c2cccnc2[C@H](C)OC)c2c3cc(ccc31)-c1cccc(c1)C[C@H](NC(=O)[C@H](C(C)C)N(C)C(=O)[C@H]1CCN(C/C=C/C(=O)N3CC(F)(F)C3)C1)C(=O)N1CCC[C@H](N1)C(=O)OCC(C)(C)C2 (atropisomer, axis not shown) [Compound 115, (3S)-1-((E)-4-(3,3-difluoroazetidin-1-yl)-4-oxobut-2-en-1-yl)-N-((2S)-1-(((6^3S,4S)-1^1-ethyl-1^2-(2-((S)-1-methoxyethyl)pyridin-3-yl)-10,10-dimethyl-5,7-dioxo-6^1,6^2,6^3,6^4,6^5,6^6-hexahydro-1^1H-8-oxa-1(5,3)-indola-6(1,3)-pyridazina-2(1,3)-benzenacycloundecaphane-4-yl)amino)-3-methyl-1-oxobutan-2-yl)-N-methylpyrrolidine-3-carboxamide]
> 100 nM | 1 to 10 nM | CCn1c(-c2cccnc2[C@H](C)OC)c2c3cc(ccc31)-c1csc(n1)C[C@H](NC(=O)[C@H](C(C)C)N(C)C(=O)[C@H]1CCN(CC#CC(=O)N3CC(F)C3)C1)C(=O)N1CCC[C@H](N1)C(=O)OCC(C)(C)C2 (atropisomer, axis not shown) [Compound 118, (3S)—N-((2S)-1-(((6^3S,4S,Z)-1^1-ethyl-1^2-(2-((S)-1-methoxyethyl)pyridin-3-yl)-10,10-dimethyl-5,7-dioxo-6^1,6^2,6^3,6^4,6^5,6^6-hexahydro-1^1H-8-oxa-2(4,2)-thiazola-1(5,3)-indola-6(1,3)-pyridazinacycloundecaphane-4-yl)amino)-3-methyl-1-oxobutan-2-yl)-1-(4-(3-fluoroazetidin-1-yl)-4-oxobut-2-yn-1-yl)-N-methylpyrrolidine-3-carboxamide]
> 100 nM | 1 to 10 nM | CCn1c(-c2cccnc2[C@H](C)OC)c2c3cc(ccc31)-c1csc(n1)C[C@H](NC(=O)[C@H](C(C)C)N(C)C(=O)[C@H]1CCN(CC#CC(=O)N3CC(F)(F)C3)C1)C(=O)N1CCC[C@H](N1)C(=O)OCC(C)(C)C2 (atropisomer, axis not shown) [Compound 117, (3S)-1-(4-(3,3-difluoroazetidin-1-yl)-4-oxobut-2-yn-1-yl)-N-((2S)-1-(((6^3S,4S,Z)-1^1-ethyl-1^2-(2-((S)-1-methoxyethyl)pyridin-3-yl)-10,10-dimethyl-5,7-dioxo-6^1,6^2,6^3,6^4,6^5,6^6-hexahydro-1^1H-8-oxa-2(4,2)-thiazola-1(5,3)-indola-6(1,3)-pyridazinacycloundecaphane-4-yl)amino)-3-methyl-1-oxobutan-2-yl)-N-methylpyrrolidine-3-carboxamide]

Further lines, the compound ahead of its results:

SMILES | IC50 [1] | IC50 [2]
CCn1c(-c2cccnc2[C@H](C)OC)c2c3cc(ccc31)-c1csc(n1)C[C@H](NC(=O)[C@H](C(C)C)N(C)C(=O)[C@H]1CCN(C/C=C/C(=O)N(C)C)C1)C(=O)N1CCC[C@H](N1)C(=O)OCC(C)(C)C2 (atropisomer, axis not shown) [Compound 111, (3S)-1-((E)-4-(dimethylamino)-4-oxobut-2-en-1-yl)-N-((2S)-1-(((6^3S,4S,Z)-1^1-ethyl-1^2-(2-((S)-1-methoxyethyl)pyridin-3-yl)-10,10-dimethyl-5,7-dioxo-6^1,6^2,6^3,6^4,6^5,6^6-hexahydro-1^1H-8-oxa-2(4,2)-thiazola-1(5,3)-indola-6(1,3)-pyridazinacycloundecaphane-4-yl)amino)-3-methyl-1-oxobutan-2-yl)-N-methylpyrrolidine-3-carboxamide] | 10 to 100 nM | –
CCn1c(-c2cccnc2[C@H](C)OC)c2c3cc(ccc31)-c1csc(n1)C[C@H](NC(=O)[C@H](C(C)C)N(C)C(=O)[C@H]1CCN(CC#CC(=O)N(C)C)C1)C(=O)N1CCC[C@H](N1)C(=O)OCC(C)(C)C2 (atropisomer, axis not shown) [Compound 113, (3S)-1-(4-(dimethylamino)-4-oxobut-2-yn-1-yl)-N-((2S)-1-(((6^3S,4S,Z)-1^1-ethyl-1^2-(2-((S)-1-methoxyethyl)pyridin-3-yl)-10,10-dimethyl-5,7-dioxo-6^1,6^2,6^3,6^4,6^5,6^6-hexahydro-1^1H-8-oxa-2(4,2)-thiazola-1(5,3)-indola-6(1,3)-pyridazinacycloundecaphane-4-yl)amino)-3-methyl-1-oxobutan-2-yl)-N-methylpyrrolidine-3-carboxamide] | < 1 nM | –
CCn1c(-c2cccnc2[C@H](C)OC)c2c3cc(ccc31)-c1csc(n1)C[C@H](NC(=O)[C@H](C(C)C)N(C)C(=O)[C@H]1CCN(C(C)C#CC(=O)N(C)C)C1)C(=O)N1CCC[C@H](N1)C(=O)OCC(C)(C)C2 (stereo partly drawn) [Compound 114, (3S)-1-(5-(dimethylamino)-5-oxopent-3-yn-2-yl)-N-((2S)-1-(((63S,4S,Z)-1^1-ethyl-1^2-(2-((S)-1-methoxyethyl)pyridin-3-yl)-10,10-dimethyl-5,7-dioxo-6^1,6^2,6^3,6^4,6^5,6^6-hexahydro-11H-8-oxa-2(4,2)-thiazola-1(5,3)-indola-6(1,3)-pyridazinacycloundecaphane-4-yl)amino)-3-methyl-1-oxobutan-2-yl)-N-methylpyrrolidine-3-carboxamide] | < 1 nM | –
CCn1c(-c2cccnc2[C@H](C)OC)c2c3cc(ccc31)-c1cccc(c1)C[C@H](NC(=O)[C@H](C(C)C)N(C)C(=O)[C@H]1CCN(C(=O)C#CCN(C)C)C1)C(=O)N1CC[C@@H](C1)C(=O)OCC(C)(C)C2 (atropisomer, axis not shown) [Compound 102, (3S)-1-(4-(dimethylamino)but-2-ynoyl)-N-((2S)-1-(((6^3S,4S)-1^1-ethyl-1^2-(2-((S)-1-methoxyethyl)pyridin-3-yl)-10,10-dimethyl-5,7-dioxo-1^1H-8-oxa-1(5,3)-indola-6(1,3)-pyrrolidina-2(1,3)-benzenacycloundecaphane-4-yl)amino)-3-methyl-1-oxobutan-2-yl)-N-methylpyrrolidine-3-carboxamide] | > 100 nM | –
CCn1c(-c2cccnc2[C@H](C)OC)c2c3cc(ccc31)-c1cccc(c1)C[C@H](NC(=O)[C@H](C(C)C)N(C)C(=O)C1CCN(CC#CC(=O)N(C)C)CC1)C(=O)N1CCC[C@H](N1)C(=O)OCC(C)(C)C2 (atropisomer, axis not shown) [Compound 109, 1-(4-(dimethylamino)-4-oxobut-2-yn-1-yl)-N-((2S)-1-(((6^3S,4S)-1^1-ethyl-1^2-(2-((S)-1-methoxyethyl)pyridin-3-yl)-10,10-dimethyl-5,7-dioxo-6^1,6^2,6^3,6^4,6^5,6^6-hexahydro-1^1H-8-oxa-1(5,3)-indola-6(1,3)-pyridazina-2(1,3)-benzenacycloundecaphane-4-yl)amino)-3-methyl-1-oxobutan-2-yl)-N-methylpiperidine-4-carboxamide] | 1 to 10 nM | –
CCn1c(-c2cccnc2[C@H](C)OC)c2c3cc(ccc31)-c1cccc(c1)C[C@H](NC(=O)[C@H](C(C)C)N(C)C(=O)[C@H]1CCN(C(=O)C#CCN3CCOCC3)C1)C(=O)N1CCC[C@@H](CC(=O)OC(C)(C)C2)C1 [Compound 106, (3S)—N-((2S)-1-(((6^3S,4S)-1^1-ethyl-1^2-(2-((S)-1-methoxyethyl)pyridin-3-yl)-10,10-dimethyl-5,8-dioxo-1^1H-9-oxa-1(5,3)-indola-6(1,3)-piperidina-2(1,3)-benzenacycloundecaphane-4-yl)amino)-3-methyl-1-oxobutan-2-yl)-N-methyl-1-(4-morpholinobut-2-ynoyl)pyrrolidine-3-carboxamide] | > 100 nM | –
